Results taken from paper PMC3172300, “Modulation of Catalytic Activity in Multi-Domain Protein Tyrosine Phosphatases” (PLoS ONE, 2011).
Square brackets hold non-standard residues; d marks the D form. Peptide text beside a SMILES is read from it. pY = N[C@@H](Cc1ccc(OP(=O)(O)O)cc1)C(=O)O

Experiments:
[1] = tested on: DLAR D1 active site cysteine to serine mutant; assay: Phosphatase assay using pNPP, DLAR D1 active site Cys to Ser mutant; assay type: biochemical, Drosophila melanogaster; conditions: active site cysteine to serine in D1
Excerpt: Cosmids containing the genes encoding RPTPs DLAR and PTP99A were a kind gift from Prof. Kai Zinn (Caltech). The PTP domains of PTP99A and DLAR were PCR amplified and ligated between the NheI and XhoI restriction sites of the bacterial expression vectors pET-15b and pET-22b. The active site mutants (with the nucleophilic cysteines in the PTP domains of DLAR and PTP99A mutated to serines) were obtained by using a single primer approach. An XbaI site was incorporated in the primers to aid screening of mutants. All clones were confirmed by sequencing (Macrogen Inc.). The details of the expression constructs are compiled in Table S1 and Figure 1a.
Phosphatase activity of the recombinant PTP domains was determined by using para-Nitrophenylphosphate (pNPP), a small molecule generic substrate, as well as phosphotyrosine containing peptides. The pNPP assay was performed as reported previously, with a modification in the buffer composition (25 mM Citrate, Glycine and HEPES (CGH), pH 6.5, 100 mM NaCl and 2 mM DTT). Phosphatase activity with the phosphotyrosine peptides was ascertained by the malachite green reaction as described for PTPs previously. […] The reaction was stopped by the addition of the Biomol Green reagent (Enzo Life Sciences) and the colour developed after 20 min was quantified at 650 nm. […]

[2] = tested on: D958C mutant of the D2 domain of PTP99A; assay: Phosphatase assay using pNPP, PTP99A D2 D958C mutant; assay type: biochemical, Drosophila melanogaster; conditions: D958C point mutant
Description: Phosphatase activity of the recombinant PTP domains was determined by using para-Nitrophenylphosphate (pNPP), a small molecule generic substrate, as well as phosphotyrosine containing peptides. The pNPP assay was performed as reported previously, with a modification in the buffer composition (25 mM Citrate, Glycine and HEPES (CGH), pH 6.5, 100 mM NaCl and 2 mM DTT). Phosphatase activity with the phosphotyrosine peptides was ascertained by the malachite green reaction as described for PTPs previously. Briefly, the reaction mixture comprised of 0.01 µM protein incubated with increasing concentrations of different peptides in 25 mM citrate buffer pH 6.0, 100 mM NaCl and 2 mM DTT for 15 min at 25°C. The reaction was stopped by the addition of the Biomol Green reagent (Enzo Life Sciences) and the colour developed after 20 min was quantified at 650 nm. For all the assays, kinetic constants for the steady state catalysis were obtained by fitting the reaction curves to the Michaelis-Menten equation using the nonlinear regression module of Sigma plot software (Systat Software, Inc.).
Supplementary file pone.0024766.s005.tif: Figure S5 Characterization of the D958C mutant of the D2 domain of PTP99A. A: Size exclusion profile of wild-type and D958C mutant of the D2 domain of PTP99A. B: Circular Dichroism (CD) spectra of the wild type and D958C mutant. […]

DLAR D2 = target: T1, DLAR D2 (Drosophila melanogaster, UniProt P16621); assay: Surface Plasmon Resonance peptide binding, DLAR D2; conditions: column second binding site, single-site model
T1 construct: DLAR 1728-2029; His tag (pET-15b or pET-22b); made in house; host or cells: E. coli BL21(DE3)
T1 sequence (P16621 1728-2029): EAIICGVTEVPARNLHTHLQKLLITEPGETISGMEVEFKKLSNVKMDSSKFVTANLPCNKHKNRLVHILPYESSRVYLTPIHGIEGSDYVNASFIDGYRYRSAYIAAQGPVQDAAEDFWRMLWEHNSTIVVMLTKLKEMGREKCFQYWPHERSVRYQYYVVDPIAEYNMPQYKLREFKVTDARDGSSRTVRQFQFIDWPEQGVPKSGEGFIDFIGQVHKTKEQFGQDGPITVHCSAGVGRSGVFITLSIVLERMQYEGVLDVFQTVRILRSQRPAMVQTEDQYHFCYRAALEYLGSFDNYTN
Description: The binding of phosphotyrosine peptides to the PTP domains was studied by Surface Plasmon Resonance on a Biacore-2000 instrument (BIAcore, AB). All experiments were conducted at 25°C. DLAR PTP domains were immobilized onto carboxylated dextran CM5 chips (BIAcore AB) using the standard amine coupling procedure as recommended by the manufacturer. Binding and kinetic assays were performed in 10 mM HEPES, pH 8.0, 150 mM NaCl, 10 mM DTT and 3 mM EDTA at a flow rate of 5 µL/min. The peptides were used at concentrations ranging from 50–700 µM. Dissociation was initiated by replacing the analyte with buffer. The association and dissociation curves were monitored for 600 sec. Sensograms were analyzed with BIA-evaluation software version 2 (BIAcore AB). Sensograms for DLAR D1D2, DLAR D1HSSD2 and DLAR D1D2HSS were fitted to two-site binding equations. DLAR D1 and DLAR D2 sensograms were fitted using a single-site binding model.

SMILES: O=[N+]([O-])c1ccc(OP(=O)(O)O)cc1 [pNPP, para-Nitrophenylphosphate]
- PTPase activity [1]: inactive enzyme
- phosphatase activity [2]: catalytically inactive

SMILES: CC(C)C[C@H](NC(=O)[C@H](C)NC(=O)CNC(=O)[C@H](Cc1ccc(OP(=O)(O)O)cc1)NC(=O)[C@H](CC(=O)O)NC(=O)[C@@H]1CCCN1C(=O)[C@H](CCC(=O)O)NC(=O)[C@H](C)NC(=O)[C@@H](N)[C@@H](C)O)C(=O)N[C@@H](Cc1ccc(O)cc1)C(=O)N[C@@H](CCC(=O)O)C(=O)O [Cuticle peptide] (H-TAEPD[pY]GALYE-OH)
- kon (DLAR D2; SPR Biacore-2000, 25°C, 10 mM HEPES pH 8.0, 150 mM NaCl, 10 mM DTT, 3 mM EDTA, peptides 50–700 µM, read-out: ka): 52.8 ± 0.69 M⁻¹ s⁻¹
- Kd (DLAR D2; SPR, 25°C, pH 8.0): 104.5 ± 0.06 µM
